Data from patent US12178838B2, “Synthetic neuromodulatory peptides” (Lactocore, Inc., priority 2019, dated 2024).

Legend:
Assay type in all cases: in vivo
[1] = tested on: zebrafish (Danio rerio); assay: Shoaling behavior test in zebrafish; settings: ip, DKTE 1 mg/kg, vs control
Method: (§1) The tested substances were injected into the zebrafish intraperitoneally (ip) using an insulin syringe (0.5 ml, 30 g) 10 minutes before the test. The saline solution (0.9% NaCl) was used as a solvent. Anesthesia and immobilization of the animals were achieved by placing them in water at a temperature of 10° C. Control group fish received intraperitoneal injections of an equivalent volume of solvent, also after going through a pre-cooling procedure.
A Plexiglas container with a removable partition (shown in FIG. 4) was used as a setup for investigating the shoaling behavior of zebrafish. A shoal of 5 adult Danio rerio specimens was placed into in the small compartment; and the test fish was placed in a large compartment. Diffused lighting in this installation was provided by the usual lighting of the room (about 200 Lx).
The shoaling behavior test was performed as described in Parker et al., 2014. (Parker et al. (2014) The utility of zebrafish to study the mechanisms by which ethanol affects social behavior and anxiety during early brain development. Prog. Neuro-Psychopharmacology Biol. Psychiatry. 94-100). The video recording began simultaneously with placing the zebrafish in the set-up and recorded for 5 minutes. The videos were processed using RealTimer (OpenScience Ltd., Moskow, Russia). During the processing of the records, the residence time and the number of visits to the three conventional zones of the aquarium wall (near the “shoal” in the middle of the aquarium, and near the opposite side; all three were equal in size) were recorded.

[2] = tested on: zebrafish (Danio rerio); assay: Open Field test in zebrafish; settings: ip
Method: as §1
(§2) A base, back, and side walls of the aquarium were made of matte black plastic; the front panel (shorter wall) was made of transparent Plexiglas. The setup for the Light/Dark preference test consisted of three main parts: a launch compartment, a light compartment made of white plastic, and a dark compartment made of black plastic. The bright lighting in these tests was provided by a lamp on a stand (LED lamp PL, 11 W, light flux≈600 Lm, about 500 Lx directly above the water surface), which was attached to the upper part of the aquarium.
The open field test was performed as described in Maximino et al., 2013. A video recording (background shooting) was started 20-30 seconds before the zebrafish were placed in the test aquarium. The experimental zebrafish was placed in an open field (“OF”) aquarium using a net. The recording was being conducted for five minutes. The test was carried out using EthoVision XT software package (Noldus). The software registered the distance covered by the animal, its speed, the number of visits to the three conventional zones of the aquarium: “bottom,” “center,” and […] (lower, middle, and upper thirds of the aquarium, respectively), the time spent in these zones, and the latency of a visit to the middle and to the surface of the aquarium.

[3] = tested on: BALB/C mice; assay: Elevated Plus Maze test in mice; settings: ip, Diazepam 0.75 mg/kg
Method: After an adaptation period, the test substance was intraperitoneally injected into mice. Behavioral parameters were measured in 30 minutes after injection. The tests were administered as follows: day 1—the Open field test, day 3—the Elevated plus maze test, day 5—the Marble burying test, days 12-13—the Porsolt swim (two-day modification) test.
In the elevated plus maze test, a test arena includes two open and two closed arms crossed in the middle. The arm length is 30 cm, the height of the closed arms side walls is 15 cm. The entire installation is raised 70 cm above the floor. The open arms have bright uniform illumination of about 400 lux, and the closed arms have illumination of about 30-40 lux. Mice were placed at the junction of the four arms of the maze (center), facing an open arm. The following behavioral parameters were automatically registered by the EthoVision, Noldus program within 5 minutes of the experiment: a total distance (cm), a time of motion (if the speed is more than 5 cm/s), an immobility (if the speed is less than 0.2 cm/sec), a mean and maximum velocity, and the number of episodes of motor activity and “freezing”. The same set of parameters, as well as a latent period and the duration of stay, were measured for the central sector, open and closed arms separately. (Manufactured by OpenScience, Russia).
All substances were injected intraperitoneally in a volume of 10 μl of solution per 1 gram of animal weight 30 minutes prior to behavioral testing.
The second group of parameters includes a time on open arms (in seconds) (FIG. 35), a number of open arms entries (FIG. 36), a number of risk behavior (number of rearings and dangle events, as shown in FIG. 37]), and an anxiety index (FIG. 38). The anxiety index (AI) was calculated using the following formula: AI=100*(1−(time on open arms/total test time+open arms entries/total number of entries)/2)

[4] = tested on: zebrafish (Danio rerio); assay: Light/dark box test in zebrafish; settings: ip
Method: as §1, §2
The light/dark box (LDB) test was performed as described in Maximino et al., 2011. The zebrafish was placed in a light compartment of an LDB using a net, the camera was switched on simultaneously, and the behavior of the zebrafish was recorded for 5 minutes. The video was processed using RealTimer (OpenScience). During the processing of records, the residence time and the number of visits to the light and dark compartments of the test setup were recorded, as well as the latent period of visiting both compartments.

CN1C(=O)CN=C(c2ccccc2)c2cc(Cl)ccc21 [Diazepam]
time spent in the compartment near the shoal ([1]; diazepam 1.25 mg/kg, ACZ-10 0.6 mg/kg, BCM-7 5 mg/kg): statistically significant decrease
time spent outside the shoaling compartment (near the wall opposite to the shoal) ([1]; diazepam 5 mg/kg, FQSE 10 mg/kg): increase
distance covered during the open field test ([2]; diazepam 10 mg/kg): tended to cover a smaller distance
average distance covered / track length (locomotor activity) ([2]; diazepam 1.25, 5, 10, fluvoxamine 5, 10, ACZ-10 0.6, BCM-7 5, FQSE 1 and 10, DKTE 1, WDQV 10 mg/kg): did not demonstrate any significant effects
behavior in the open field test ([2]; diazepam 1.25 and 5 mg/kg): No effects
Time on open arms ([3]; FQSE 20 mg/kg): 67.4 ± 18.43 s
Open arms entries ([3]; FQSE 1 mg/kg): 6.5±0.99
The number of risk behavior ([3]; FQSE 1 mg/kg): 15±2.8
total distance ([3]; FQSE 1 mg/kg): 1219±91.4 cm
time spent in the light compartment ([4]; diazepam 5 mg/kg, FQSE 10 mg/kg, WDQV 10 mg/kg): increased dramatically
number of transitions between the light and dark compartments ([4]; diazepam 10 mg/kg): increase
time of the first exit (latent period) to the light chamber ([4]; diazepam 10 mg/kg): decrease
